Data as given in PubChem BioAssay AID1996.
≈ marks a conversion by molar mass, not a printed value. Residues, ends and D or L forms follow the SMILES beside them. *: point of attachment. OBn = c1ccc(CO*)cc1

Conditions: buffer; pH 7.4; 200.0 µM

Row | SMILES | solubility kinetic [µg/mL]
1 | O=C(O)CSCC(=O)N(c1ccccc1)c1ccccc1 | 42.9 (≈ 142 µM)
2 | N#Cc1ccc(N2CCN(C(=O)c3cccs3)CC2)c(F)c1 | 40.1 (≈ 127 µM)
3 | COc1ccc(S(=O)(=O)N2CC(=O)Nc3ccccc32)cc1F | > 50.5
4 | CCOc1ccccc1C(=O)Nc1cccc2ccccc12 | < 0.6
5 | O=C(NC1CCCC1)C1CCN(C(=O)c2ccc(Cl)cc2)CC1 | > 50.2
6 | O=C(Nc1ccc2c(c1)OCCO2)C1CC(c2ccc(F)cc2)=NO1 (stereo not given) | 1.2 (≈ 3.51 µM)
7 | CCc1ccccc1OCC(=O)NCC1COc2ccccc2O1 (stereo not given) | 14.9 (≈ 45.5 µM)
8 | CC(C)NC(=O)NC(=O)CSc1ncccn1 | > 38.1
9 | Cc1ccsc1C1CC(=O)Nc2ccccc2S1 (stereo not given) | 35.6 (≈ 129 µM)
10 | O=C(CSCc1ccccc1)NCCc1ccc(F)cc1 | 41.5 (≈ 137 µM)
11 | CC(=O)c1ccc(OCCCC(=O)Nc2cccc(S(=O)(=O)N3CCCCCC3)c2)cc1 | 10.4 (≈ 22.7 µM)
12 | O=C(CN1C(=O)NC2(CCCC2)C1=O)NCc1ccc(Cl)cc1 | > 50.4
13 | COc1ccccc1OCCC(=O)Nc1ccc2c(c1)OCO2 | > 47.3
14 | CC(C)(C)C(O)(CC#CCN1CCCC1)c1ccccc1.Cl (stereo not given) | > 48.3
15 | Cc1ccc(CNC(=O)CNC(=O)c2ccco2)cc1 | > 40.8
16 | O=C(c1ccco1)N1CCN(C23CC4CC(CC(C4)C2)C3)CC1 | > 47.2
17 | CCCCCNCc1ccc(Cl)cc1 | 12.4 (≈ 58.6 µM)
18 | CC(C)OCCCNC(=O)CN1C(=O)c2cccc3cccc1c23 | > 49
19 | NC(=O)c1ccsc1NC(=O)c1ccc([N+](=O)[O-])o1 | 20.5 (≈ 72.9 µM)
20 | Cc1cccc(C(C)C)c1NS(=O)(=O)c1cn(C)nc1C | > 46.1

Row | SMILES | solubility kinetic [µg/mL]
21 | Nc1nc(COC(=O)c2ccc3c(c2)OCCO3)nc(Nc2ccccc2)n1 | 3.9 (≈ 10.3 µM)
22 | CN(c1ccc(C(=O)Nc2cccnc2)cc1)S(=O)(=O)c1ccccc1 | > 55.1
23 | Cc1cc(NC(=O)c2ccco2)c(=O)n(Cc2cccc(C(F)(F)F)c2)c1 | < 0.4
24 | COc1ccccc1CNC(=O)CN1C(=O)NC2(CCC(C)CC2)C1=O (stereo not given) | > 53.9
25 | CC1Oc2ccccc2N(CC(=O)NCCN2CCOCC2)C1=O (stereo not given) | > 50
26 | O=C1C(=O)N(CCS(=O)(=O)c2ccccc2)c2ccccc21 | > 47.3
27 | CC(=O)NCC(=O)N[C@@H](CC(=O)OCc1ccccc1)C(=O)OCc1ccccc1 (Ac-Gly-Asp(OBn)-OBn) | > 61.9
28 | CC(CCc1ccccc1)NC(=O)C1CCC1 (stereo not given) | > 34.7
29 | O=S(=O)(CCN1CCOCC1)c1ccc(OC(F)(F)F)cc1 | > 50.9
30 | O=C(O)c1ccc(OCC(O)Cn2c3ccccc3c3ccccc32)cc1 (stereo not given) | > 54.2
31 | N#Cc1c2ccc(OCC(N)=O)cc2n2ccccc12 | 1.95 (≈ 7.35 µM)
32 | COc1cccc(N2CC(O)Cn3c2nc2c3c(=O)[nH]c(=O)n2C)c1 (stereo not given) | > 51.5
33 | Cc1ccccc1Nc1ccc2nonc2c1[N+](=O)[O-] | 0.8 (≈ 2.96 µM)
34 | CC(=O)N1CCN(c2ccc(NC(=O)c3ccco3)cc2)CC1 | > 47
35 | O=C1N=c2ccccc2=C1c1sc(=S)n(-c2ccc(O)cc2)c1O | 0.8 (≈ 2.26 µM)
36 | N/C(CSc1ccccn1)=N\OCc1c(Cl)cccc1Cl | 29 (≈ 84.7 µM)
37 | Cc1ccc(C(=O)NCCc2ccc(F)cc2)s1 | 5.6 (≈ 21.3 µM)
38 | O=C(c1cccs1)N1CC=C(c2ccccc2)CC1 | 11.5 (≈ 42.7 µM)
39 | Cc1ccc(CNc2nc(-c3cccnc3)nc3ccccc23)cc1 | 2.5 (≈ 7.66 µM)
40 | Cc1cc(=O)[nH]c(SCC(=O)N2CCCC2)n1 | > 38

Row | SMILES | solubility kinetic [µg/mL]
41 | O=C(COC(=O)/C=C/c1ccc(F)cc1)NCc1ccco1 | 5.1 (≈ 16.8 µM)
42 | COC(=O)c1cccc(NC(=O)CSCc2ccccc2)c1 | 35.6 (≈ 113 µM)
43 | NC(=O)c1ccc(NCC2CCCO2)c([N+](=O)[O-])c1 (stereo not given) | > 39.8
44 | COc1ccc(-c2cc(C(=O)NCc3cccs3)no2)cc1 | 0.3 (≈ 0.954 µM)
45 | COc1cccc(NC(=O)NCCCCc2ccccc2)c1 | 12.9 (≈ 43.2 µM)
46 | Cc1cc(NC(=O)COC(=O)c2cccc(O)c2)no1 | > 41.4
47 | C=CCNC(=O)C1CCC(C(=O)NCC=C)CC1 (stereo not given) | > 37.6
48 | O=C(Nc1cccc(NC(=O)c2ccco2)c1)c1ccccc1 | 45.9 (≈ 150 µM)
49 | O=C(Nc1ccc(F)cc1)c1ccc2[nH]c(=O)c(=O)[nH]c2c1 | > 44.9
50 | Cc1ccc(C(=O)NC(=S)NCc2ccccc2)cc1Br | 0.4 (≈ 1.1 µM)
51 | CCOC1C(=O)NC(=O)N1Cc1ccccc1 (stereo not given) | 29.8 (≈ 127 µM)
52 | COc1ccc(OCCC(=O)OCC(=O)NCc2ccc(F)cc2)cc1 | 33.5 (≈ 92.7 µM)
53 | CC(=O)c1cccc(-n2c(CCC(=O)O)ccc2-c2ccccc2)c1 | > 50
54 | Cc1cccc(C(=O)Oc2ccccc2C(=O)N2CCOCC2)c1 | > 48.8
55 | CC(NC(=O)COC(=O)/C=C/c1cccc(F)c1)c1ccccc1 (stereo not given) | 6.1 (≈ 18.6 µM)
56 | Cc1ccc(C(=O)NN2CCOCC2)cc1[N+](=O)[O-] | > 39.8
57 | Cc1ccc(/C=C2/C(=O)NC(=O)N(Cc3ccc(F)cc3)C2=O)o1 | 11.4 (≈ 34.7 µM)
58 | Cc1cccc(-n2c(C)cc(C(=S)N3CCOCC3)c2C)c1C | 28.2 (≈ 85.8 µM)
59 | O=C(CN1C(=O)S/C(=C\c2ccc(C(=O)O)cc2)C1=O)Nc1ccccc1 | 32.2 (≈ 84.2 µM)
60 | COc1ccc(C(=O)N2CCC(C(=O)c3c(C)cc(C)cc3C)CC2)cc1 | 31.4 (≈ 85.9 µM)
